Experimental findings from publication PMC6328429, “Synthesis of a benzoxazinthione derivative of tanaproget and pharmacological evaluation for PET imaging of PR expression” (EJNMMI Radiopharmacy and Chemistry, 2019) are described below.

This test concerns the target T1, progesterone receptor (PR) (Homo sapiens, UniProt P06401).
T1 construct: endogenous in cells; host or cells: T47D breast carcinoma cells
T1 sequence (P06401 1-933): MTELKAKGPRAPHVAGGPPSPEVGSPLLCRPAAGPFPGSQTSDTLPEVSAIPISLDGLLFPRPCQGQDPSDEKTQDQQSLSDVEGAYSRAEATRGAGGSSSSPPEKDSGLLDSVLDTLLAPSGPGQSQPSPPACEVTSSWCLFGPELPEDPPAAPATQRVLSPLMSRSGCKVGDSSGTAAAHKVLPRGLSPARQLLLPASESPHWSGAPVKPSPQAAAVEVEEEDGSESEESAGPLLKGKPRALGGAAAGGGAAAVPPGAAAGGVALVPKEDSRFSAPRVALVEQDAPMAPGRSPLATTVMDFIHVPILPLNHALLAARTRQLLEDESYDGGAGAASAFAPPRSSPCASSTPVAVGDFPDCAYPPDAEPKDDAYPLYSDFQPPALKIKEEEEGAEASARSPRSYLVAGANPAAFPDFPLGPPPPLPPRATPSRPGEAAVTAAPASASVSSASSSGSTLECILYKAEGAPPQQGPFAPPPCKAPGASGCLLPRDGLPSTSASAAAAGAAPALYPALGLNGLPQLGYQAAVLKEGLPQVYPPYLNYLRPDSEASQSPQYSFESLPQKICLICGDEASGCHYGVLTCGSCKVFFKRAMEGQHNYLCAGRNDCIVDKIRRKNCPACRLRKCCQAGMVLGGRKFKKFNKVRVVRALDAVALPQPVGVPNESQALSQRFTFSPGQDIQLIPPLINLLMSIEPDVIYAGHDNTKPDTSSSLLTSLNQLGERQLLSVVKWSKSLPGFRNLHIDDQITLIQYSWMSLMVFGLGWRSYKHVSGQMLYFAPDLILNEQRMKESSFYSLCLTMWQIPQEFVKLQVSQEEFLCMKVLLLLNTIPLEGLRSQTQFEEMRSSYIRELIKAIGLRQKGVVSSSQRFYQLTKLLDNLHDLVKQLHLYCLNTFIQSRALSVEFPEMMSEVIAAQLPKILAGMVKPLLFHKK
Nature of the test: T47D alkaline phosphatase (AP) potency assay. The test is classed as cell-based. As for the experimental part: The method described by Di Lorenzo et al was followed with minor adaptation (Di Lorenzo et al., [1991]). In brief, T47D breast carcinoma cells were seeded in 96-well plates at 50,000 cell/well in RPMI medium supplemented with 10% FBS. After overnight culture, the medium was changed to RPMI phenol red free containing 2% charcoal-stripped FBS. After 24 h, the cells were treated with progesterone (Sigma Aldrich, Gillingham, UK) or the library compounds. Progesterone and the test compounds were dissolved in DMSO (100%) and diluted into treatment medium to give a final DMSO (v/v) concentration of 0.1%. After incubation (48 h) the treatment was finalised by twice washing the plates with PBS. Cells were lysed by two freeze-thaw cycles (− 80 °C). Cellular alkaline phosphatase activity was determined by adding Femto ELISA-AP substrate (200 μL) and optical density measurements taken at 5 and 10 min intervals at a wavelength of 405 nm. Data was interpreted using Graphpad Prism (GraphPad, CA, USA) using the model: dose-response simulation/inhibition, log(agonist/inhibition) vs. response – variable slope (four parameters). For compounds where EC50 > 10,000, an antagonist profile was assumed and the experiment was repeated with the inclusion of progesterone (3 mM) with the library compound. Data shown in the supporting information (Additional file 1: Figure S32).

Broadly, the EC50 is the concentration giving half of the maximal effect. A lower EC50 goes with a more potent agent. Compound `CC1(C)OC(=S)Nc2ccc(-c3cccnc3F)cc21` [Compound 2, 6-(2-fluoropyridin-3-yl)-4,4-dimethyl-1H-benzo[d][1,3]oxazine-2(4H)-thione] yielded an EC50 (agonist response, 48 h incubation, average of at least n = 3 ± SD) of 4.7 ± 0.07 nM. Moreover, under “compound 2 versus 4”, the “fold more potent than structural isomer 4” value is roughly 1000 fold.
